Experimental data published in patent US10206907B2, “Compounds useful for the treatment of degenerative and inflammatory diseases” (GALAPAGOS NV, priority 2008, dated 2019).

What was measured:
[1] = Microsomal stability, human liver microsomes; assay type: in vitro ADME; details: percentage of compound remaining after 60 minutes, 3 μM compound
In short: (§1)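 Percent parent remaining after 60 min was determined by LCMS against a time-zero sample quenched before microsome addition. Incubations ran at 37°C with liver microsomes and a G6PDH-based NADPH-regenerating cofactor mix. Quench was MeOH or ACN (1:1).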

[2] = molecular target: Recombinant human JAK1 catalytic domain (Homo sapiens (Human), UniProt P23458); experiment: JAK1 inhibition assay; assay type: biochemical; details: semi-quantitative score
In short: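 IC50 values come from dose-response series, with each point expressed as percent inhibition of cpm. Vehicle sets full activity and 10 μM staurosporine sets background. Incorporated radioactivity counted by scintillation after washing with 75 mM phosphoric acid.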

[3] = Microsomal stability, rat liver microsomes; assay type: in vitro ADME; details: percentage of compound remaining after 60 minutes, 3 μM compound
In short: as §1

[4] = Caco2 permeability (bi-directional); assay type: in vitro ADME, human; details: human, pH 7.4; for Papp A→B at 1 h, 10 µM: Caco-2, apical to basolateral, read-out: Papp (A2B); for efflux ratio at 1 h, 10 µM: Caco-2, ratio of PappB>A/PappA>B
Experimental: Bi-directional Caco-2 assays were performed as described below.
2×10^5 cells/well were seeded in plating medium consisting of DMEM+GlutaMAXI+1% NEAA+10% FBS (FetalClone II)+1% Pen/Strep. The medium was changed every 2-3 days.
50 μM Lucifer Yellow (Sigma) was added to the donor buffer in all wells to assess integrity of the cell layers by monitoring Lucifer Yellow permeation. As Lucifer Yellow (LY) cannot freely permeate lipophilic barriers, a high degree of LY transport indicates poor integrity of the cell layer.
After a 1 hour incubation at 37° C. while shaking at an orbital shaker at 150 rpm, 70 μL aliquots were taken from both apical (A) and basal (B) chambers and added to 100 μL1 50:50 acetonitrile:water solution containing analytical internal standard (0.5 μM carbamazepine) in a 96 well plate.
Concentrations of compound in the samples were measured by high performance liquid-chromatography/mass spectroscopy (LC-MS/MS).
The Efflux ratios, as an indication of active efflux from the apical cell surface, were calculated using the ratio of PappB>A/PappA>B.
The following assay acceptance criteria were used:
Lucifer yellow permeability: ≤100 nm/s

MMP13 in SW1353 cells = experiment: OSM/IL-1β signaling assay (MMP13 levels in SW1353 cells); assay type: cell-based; details: Homo sapiens; SW1353 cells, OSM and IL-1β triggered, MMP13 levels 48 hours after triggering; read-out: MMP13 EC50;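 further: secreted MMP13 captured by antibody, activated with APMA and its activity read by fluorescence, inhibition scaled between vehicle-treated triggered wells (0%) and untriggered wells (100%)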
[5] = system: JAK-STAT signalling in HeLa cells; experiment: JAK-STAT signalling assay (OSM-triggered pSTAT1(2)-luciferase reporter in HeLa cells); assay type: cell-based; details: Homo sapiens; HeLa cells, OSM-triggered pSTAT1(2)-luciferase reporter; read-out: STAT signalling EC50
In short: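 Read-out is oncostatin M–driven pSTAT1(2)-luciferase activity, corrected by co-transfected LacZ β-galactosidase, in transiently transfected HeLa cells cultured overnight at 37 °C, 10% CO2. Inhibition percentages against positive and negative controls were plotted across doses to derive EC50.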

[6] = molecular target: Recombinant human JAK2 catalytic domain (Homo sapiens (Human), UniProt O60674); experiment: JAK2 inhibition assay; assay type: biochemical; details: semi-quantitative score
In short: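 Activity was taken as vehicle cpm minus cpm with 10 μM staurosporine, and inhibition was expressed on that scale. Incubation was 90 min at 30 °C, followed by acid quench, phosphoric acid washes and Microscint counting. Compounds were tested as dose series to obtain IC50.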

Chain of Recombinant human JAK2 catalytic domain (O60674 808-1132): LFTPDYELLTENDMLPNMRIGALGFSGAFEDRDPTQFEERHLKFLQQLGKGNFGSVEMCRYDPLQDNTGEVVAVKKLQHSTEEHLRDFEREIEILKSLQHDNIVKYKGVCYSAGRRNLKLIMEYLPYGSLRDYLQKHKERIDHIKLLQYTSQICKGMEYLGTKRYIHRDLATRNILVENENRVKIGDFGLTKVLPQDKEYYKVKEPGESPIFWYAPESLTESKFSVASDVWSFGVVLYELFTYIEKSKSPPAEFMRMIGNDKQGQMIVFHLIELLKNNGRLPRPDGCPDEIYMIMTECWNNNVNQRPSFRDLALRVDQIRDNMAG
Chain of Recombinant human JAK1 catalytic domain (P23458 850-1154): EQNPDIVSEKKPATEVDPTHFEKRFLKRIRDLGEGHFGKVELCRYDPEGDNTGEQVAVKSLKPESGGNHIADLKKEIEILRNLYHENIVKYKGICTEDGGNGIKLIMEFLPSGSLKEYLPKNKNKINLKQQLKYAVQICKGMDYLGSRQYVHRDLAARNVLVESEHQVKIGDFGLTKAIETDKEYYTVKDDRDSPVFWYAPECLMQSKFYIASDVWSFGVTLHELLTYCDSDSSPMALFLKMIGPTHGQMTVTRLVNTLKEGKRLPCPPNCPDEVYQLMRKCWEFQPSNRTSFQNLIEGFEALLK

O=C(NCc1cccnc1)c1ccc(-c2cccc3nc(NC(=O)C4CC4)nn23)cc1 [Compound 42, 4-(2-(cyclopropanecarboxamido)-[1,2,4]triazolo[1,5-a]pyridin-5-yl)-N-(pyridin-3-ylmethyl)benzamide]
Microsomal Stability Human (%) [1]: *** (*** 51-75)
IC50 [2]: 101 to 500 nM
Microsomal Stability Rat (%) [3]: **** (**** 76-100)
Papp A→B at 1 h, 10 µM [4]: 0.45 ×10⁻⁶ cm/s
efflux ratio at 1 h, 10 µM [4]: 68.8

O=C(NCCc1cnn(-c2ccccc2)c1)c1ccc(-c2cccc3nc(NC(=O)C4CC4)nn23)cc1 [Compound 106, 4-(2-(cyclopropanecarboxamido)-[1,2,4]triazolo[1,5-a]pyridin-5-yl)-N-(2-(1-phenyl-1H-pyrazol-4-yl)ethyl)benzamide]
Microsomal Stability Human (%) [1]: * (* 0-25)
IC50 [2]: < 100 nM
Microsomal Stability Rat (%) [3]: * (* 0-25)
EC50 (MMP13 in SW1353 cells): 1 to 500 nM
EC50 [5]: 101 to 500 nM
Papp A→B at 1 h, 10 µM [4]: 4.23 ×10⁻⁶ cm/s
efflux ratio at 1 h, 10 µM [4]: 7.38

O=C(Nc1nc2cccc(-c3ccc(C(=O)N4CCCC(C(F)(F)F)C4)cc3)n2n1)C1CC1 (centres unmarked) [Compound 164, N-(5-(4-(3-(trifluoromethyl)piperidine-1-carbonyl)phenyl)-[1,2,4]triazol[1,5-a]pyridin-2-yl)cyclopropanecarboxamide]
Microsomal Stability Human (%) [1]: ** (** 26-50)
IC50 [2]: < 100 nM
Microsomal Stability Rat (%) [3]: ** (** 26-50)
EC50 (MMP13 in SW1353 cells): > 1000 nM
EC50 [5]: > 1000 nM
Papp A→B at 1 h, 10 µM [4]: 6.9 ×10⁻⁶ cm/s
efflux ratio at 1 h, 10 µM [4]: 2.5

O=C(Nc1nc2cccc(-c3ccc(C(=O)N4CCC(F)(F)CC4)cc3)n2n1)C1CC1 [Compound 168]
Microsomal Stability Human (%) [1]: **** (**** 76-100)
Microsomal Stability Rat (%) [3]: *** (*** 51-75)
EC50 (MMP13 in SW1353 cells): > 1000 nM
EC50 [5]: > 1000 nM
Papp A→B at 1 h, 10 µM [4]: 11 ×10⁻⁶ cm/s

CC1(C)CCCN(C(=O)c2ccc(-c3cccc4nc(NC(=O)C5CC5)nn34)cc2)C1 [Compound 175, N-(5-(4-(3,3-dimethylpiperidine-1-carbonyl)phenyl)-[1,2,4]triazolo[1,5-a]pyridin-2-yl)cyclopropanecarboxamide]
Microsomal Stability Human (%) [1]: * (* 0-25)
IC50 [2]: < 100 nM
Microsomal Stability Rat (%) [3]: * (* 0-25)
EC50 (MMP13 in SW1353 cells): 1 to 500 nM
EC50 [5]: 501 to 1000 nM
Papp A→B at 1 h, 10 µM [4]: 6.95 ×10⁻⁶ cm/s
efflux ratio at 1 h, 10 µM [4]: 2

O=C(Nc1nc2cccc(-c3ccc4c(ccn4C(=O)CCc4ccccc4)c3)n2n1)C1CC1 [Compound 179, Cyclopropanecarboxylic Acid {5-[1-(3-phenyl-propionyl)-1H-indol-5-yl]-[1,2,4]triazolo[1,5-a]pyridin-2-yl}-amide]
Microsomal Stability Human (%) [1]: * (* 0-25)
IC50 [2]: < 100 nM
Microsomal Stability Rat (%) [3]: * (* 0-25)
EC50 [5]: > 1000 nM
Papp A→B at 1 h, 10 µM [4]: 0.5 ×10⁻⁶ cm/s
efflux ratio at 1 h, 10 µM [4]: 1

O=C(Nc1nc2cccc(-c3ccc(CNc4ccccn4)cc3)n2n1)C1CC1 [Compound 244, Cyclopropanecarboxylic acid (5-[4-(pyridin-2-ylaminomethyl)-phenyl]-[1,2,4]triazolo[1,5-a]pyridin-2-yl}-amide]
Microsomal Stability Human (%) [1]: * (* 0-25)
IC50 [2]: < 100 nM
IC50 [6]: < 100 nM
Microsomal Stability Rat (%) [3]: * (* 0-25)
EC50 (MMP13 in SW1353 cells): 501 to 1000 nM
EC50 [5]: 501 to 1000 nM

COc1c(F)ccc(NCc2ccc(-c3cccc4nc(NC(=O)C5CC5)nn34)cc2)c1F [Compound 245, Cyclopropanecarboxylic acid (5-{4-[(2,4-difluoro-3-methoxy-phenylamino)-methyl]-phenyl}-[1,2,4]triazolo[1,5-a]pyridin-2-yl)-amide]
Microsomal Stability Human (%) [1]: * (* 0-25)
IC50 [2]: < 100 nM
IC50 [6]: < 100 nM
Microsomal Stability Rat (%) [3]: * (* 0-25)
EC50 (MMP13 in SW1353 cells): > 1000 nM
EC50 [5]: 101 to 500 nM

O=C(Nc1nc2cccc(-c3ccc(CNc4c(F)cccc4F)cc3)n2n1)C1CC1 [Compound 246, Cyclopropanecarboxylic acid (5-{4-[(2,6-difluoro-phenylamino)-methyl]-phenyl}-[1,2,4]triazolo[1,5-a]pyridin-2-yl)-amide]
Microsomal Stability Human (%) [1]: * (* 0-25)
IC50 [2]: < 100 nM
IC50 [6]: < 100 nM
Microsomal Stability Rat (%) [3]: * (* 0-25)
EC50 (MMP13 in SW1353 cells): 501 to 1000 nM
EC50 [5]: 101 to 500 nM

O=C(Nc1nc2cccc(-c3ccc(CNc4ncc(F)cc4F)cc3)n2n1)C1CC1 [Compound 257, Cyclopropanecarboxylic acid (5-{4-[(3,5-difluoro-pyridin-2-ylamino)-methyl]-phenyl}-[1,2,4]triazolo[1,5-a]pyridin-2-yl)-amide]
IC50 [6]: < 100 nM
Papp A→B at 1 h, 10 µM [4]: 24 ×10⁻⁶ cm/s
efflux ratio at 1 h, 10 µM [4]: 1.1

O=C(Nc1nc2cccc(-c3ccc(CC(=O)N4CCCCC4)cc3)n2n1)C1CC1 [Compound 266, Cyclopropanecarboxylic acid {5-[4-(2-oxo-2-piperidin-1-yl-ethyl)-phenyl]-[1,2,4]triazolo[1,5-a]pyridin-2-yl}-amide]
Microsomal Stability Human (%) [1]: * (* 0-25)
IC50 [2]: < 100 nM
IC50 [6]: 101 to 500 nM
Microsomal Stability Rat (%) [3]: **** (**** 76-100)
EC50 (MMP13 in SW1353 cells): > 1000 nM
EC50 [5]: 501 to 1000 nM

O=C(Nc1nc2cccc(-c3ccc(CC(=O)N4CCS(=O)(=O)CC4)cc3)n2n1)C1CC1 [Compound 267, Cyclopropanecarboxylic acid (5-{4-[2-(1,1-dioxo-thiomorpholin-4-yl)-2-oxo-ethyl]-phenyl}-[1,2,4]triazolo[1,5-a]pyridin-2-yl)-amide]
Microsomal Stability Human (%) [1]: **** (**** 76-100)
IC50 [2]: < 100 nM
IC50 [6]: 101 to 500 nM
Microsomal Stability Rat (%) [3]: **** (**** 76-100)
EC50 (MMP13 in SW1353 cells): > 1000 nM
EC50 [5]: > 1000 nM

CN(C(=O)c1ccc(-c2cccc3nc(NC(=O)C4CC4)nn23)cc1)C1CCS(=O)(=O)C1 (centres unmarked) [Compound 273, 4-[2-(Cyclopropanecarbonyl-amino)-[1,2,4]triazolo[1,5-a]pyridin-5-yl]-N-(1,1-dioxo-tetrahydrothiophen-3-yl)-N-methyl-benzamide]
Microsomal Stability Human (%) [1]: **** (**** 76-100)
IC50 [2]: < 100 nM
IC50 [6]: < 100 nM
Microsomal Stability Rat (%) [3]: **** (**** 76-100)
EC50 (MMP13 in SW1353 cells): > 1000 nM
EC50 [5]: > 1000 nM

O=C(Nc1nc2cccc(-c3ccc(CN4CCCC(F)C4)cc3)n2n1)C1CC1 (centres unmarked) [Compound 280, Cyclopropanecarboxylic acid {5-[4-(3-fluoro-piperidin-1-ylmethyl)-phenyl]-[1,2,4]triazolo[1,5-a]pyridin-2-yl}-amide]
Microsomal Stability Human (%) [1]: *** (*** 51-75)
IC50 [2]: < 100 nM
Microsomal Stability Rat (%) [3]: ** (** 26-50)
EC50 (MMP13 in SW1353 cells): > 1000 nM
EC50 [5]: 501 to 1000 nM
Papp A→B at 1 h, 10 µM [4]: 11.4 ×10⁻⁶ cm/s
efflux ratio at 1 h, 10 µM [4]: 1.14

CC(=O)N(Cc1ccc(C#N)nc1)c1ccc(-c2cccc3nc(NC(=O)C4CC4)nn23)cc1 [Compound 297, Cyclopropanecarboxylic acid (5-{4-[acetyl-(6-cyano-pyridin-3-ylmethyl)-amino]-phenyl}-[1,2,4]triazolo[1,5-a]pyridin-2-yl)-amide]
IC50 [2]: < 100 nM
IC50 [6]: < 100 nM
Microsomal Stability Rat (%) [3]: **** (**** 76-100)
EC50 (MMP13 in SW1353 cells): > 1000 nM
EC50 [5]: > 1000 nM
Papp A→B at 1 h, 10 µM [4]: 1.05 ×10⁻⁶ cm/s
efflux ratio at 1 h, 10 µM [4]: 70.2

N#CCc1ccc(OCc2ccc(-c3cccc4nc(NC(=O)C5CC5)nn34)cc2)cc1 [Compound 301, Cyclopropanecarboxylic acid {5-[4-(4-cyanomethyl-phenoxymethyl)-phenyl]-[1,2,4]triazolo[1,5-a]pyridin-2-yl}-amide]
IC50 [2]: < 100 nM
IC50 [6]: < 100 nM
Microsomal Stability Rat (%) [3]: * (* 0-25)
EC50 (MMP13 in SW1353 cells): > 1000 nM
EC50 [5]: 101 to 500 nM
Papp A→B at 1 h, 10 µM [4]: 13.9 ×10⁻⁶ cm/s
efflux ratio at 1 h, 10 µM [4]: 1.31

O=C(Nc1nc2cccc(-c3ccc(CNC4CCS(=O)(=O)C4)cc3)n2n1)C1CC1 (centres unmarked) [Compound 304, Cyclopropanecarboxylic acid (5-{4-[(1,1-dioxo-tetrahydro-thiophen-3-ylamino)-methyl]-phenyl}-[1,2,4]triazolo[1,5-a]pyridin-2-yl)-amide]
IC50 [2]: < 100 nM
IC50 [6]: < 100 nM
Microsomal Stability Rat (%) [3]: **** (**** 76-100)
EC50 (MMP13 in SW1353 cells): > 1000 nM
EC50 [5]: > 1000 nM
Papp A→B at 1 h, 10 µM [4]: 0.3 ×10⁻⁶ cm/s
efflux ratio at 1 h, 10 µM [4]: 69.7
